The results in this text go back to patent US6376497B1, “Antifungal azole derivatives having a fluorinated vinyl group and process for preparing same” (Korea Research Institute of Chemical Technology, priority 1999, dated 2002).

What all share (assay): In vitro antifungal activity, microbroth dilution MIC
Common to all, as to type: cell-based

In assay [1] the test system is Aspergillus furnigatus B. 19119. The note with it: A furnigatus B. 19119, RPMI-1640, 35° C., 4 to 48 hours. Put shortly: (§1)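 Broth microdilution adapted from NCCLS M27, in RPMI-1640 with 0.165 M MOPS, pH 7.0. Yeast or mould inoculum at 2×10^3 CFU/ml was mixed 1:1 with DMSO-derived compound solutions (200 to 0.10 μg/ml before mixing) and incubated at 35 °C for 4 to 48 h. MIC was the concentration showing no growth.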

The subject of assay [2] is Aspergillus niger A. 16404. Conditions: A. niger A. 16404, RPMI-1640, 35° C., 4 to 48 hours. In short, it runs like this: as §1
Assay [3] concerns Candida albicans A. 10231. Conditions: C. albicans A. 10231, RPMI-1640, 35° C., 4 to 48 hours. In short, it runs like this: as §1
The test system of the next assay is Candida albicans C1-2. The note with it: C. albicans C1-2, RPMI-1640, 35° C., 4 to 48 hours. In short, it runs like this:
as §1

In assay [4] the test system is Candida albicans IFO. 1385. The note with it: C. albicans IFO. 1385, RPMI-1640, 35° C., 4 to 48 hours. Put shortly:
as §1

Another assay concerns Candida krusei K. 11655. Conditions: C. krusei K. 11655, RPMI-1640, 35° C., 4 to 48 hours. In short, it runs like this: as §1
Assay [5] has as its system Candida parapsitosis A. 7330. The note with it: C. parapsitosis A. 7330, RPMI-1640, 35° C., 4 to 48 hours. Put shortly:
as §1

Assay [6] deals with Candida pseudotropicalis K. 11658. The note with it: C. pseudotropicalis K. 11658, RPMI-1640, 35° C., 4 to 48 hours. Put shortly: as §1
Assay [7] deals with Candida tropicalis A. 13803. Conditions: C. tropicalis A. 13803, RPMI-1640, 35° C., 4 to 48 hours. Put shortly:
as §1

Assay [8] deals with Cryptococcus neoformans A. 34144. The note with it: Cry. neoformans A. 34144, RPMI-1640, 35° C., 4 to 48 hours. In short, it runs like this: as §1
In assay [9] the test system is Cryptococcus neoformans B. 42419. Conditions: Cry. neoformans B. 42419, RPMI-1640, 35° C., 4 to 48 hours. In short, it runs like this:
as §1

Assay [10] relates to Cryptococcus neoformans IFM. 40092. Conditions: Cry. neoformans IFM. 40092, RPMI-1640, 35° C., 4 to 48 hours. Put shortly: as §1
Assay [11] has as its system Torulopsis glabrata B. 16205. The note with it: T. glabrata B. 16205, RPMI-1640, 35° C., 4 to 48 hours. In short, it runs like this:
as §1

In assay [12] the test system is Trichophyton mentagrophytes A. 9129. Conditions: T. mentagrophytes A. 9129, RPMI-1640, 35° C., 4 to 48 hours. In short, it runs like this: as §1
Assay [13] relates to Trichophyton mentagrophytes B. 32663. The note with it: T. mentagrophytes B. 32663, RPMI-1640, 35° C., 4 to 48 hours. In short, it runs like this: as §1

SMILES strings stand for the structures. In brackets after ≈: the same amount, converted by molar mass.

As for `Cc1ccc(C=C(F)OCC2COC(Cn3ccnc3)(c3ccc(Cl)cc3Cl)O2)cc1` (stereo not drawn) [Ex. 3], the “Minimal inhibitory concentration (MIC)” value in [1] was determined as 3.13 µg/mL (≈ 6.76 µM); in assay [2], 3.13 µg/mL (≈ 6.76 µM); in assay [3], 12.5 µg/mL (≈ 27 µM); in the assay with Candida albicans C1-2 it was 25.0 µg/mL (≈ 54 µM); in assay [4] it was 0.78 µg/mL (≈ 1.68 µM); in the assay on Candida krusei K. 11655, 6.25 µg/mL (≈ 13.5 µM). In addition, the “Minimal inhibitory concentration (MIC)” value in [5] amounted to 6.25 µg/mL (≈ 13.5 µM); in assay [6], 6.25 µg/mL (≈ 13.5 µM); in [7] it was 25.0 µg/mL (≈ 54 µM); in assay [8], 0.39 µg/mL (≈ 0.842 µM); in assay [9], 3.13 µg/mL (≈ 6.76 µM); in assay [10], 1.56 µg/mL (≈ 3.37 µM). Moreover, the entries for the “Minimal inhibitory concentration (MIC)” value in [11], in assay [12] and in assay [13] were 3.13 µg/mL (≈ 6.76 µM), 1.56 µg/mL (≈ 3.37 µM) and 1.56 µg/mL (≈ 3.37 µM), respectively.

`CCc1ccc(C=C(F)OCC2COC(Cn3ccnc3)(c3ccc(Cl)cc3Cl)O2)cc1` (stereo not drawn) [Ex. 4]: the “Minimal inhibitory concentration (MIC)” value turned out to be 6.25 µg/mL (≈ 13.1 µM) in assay [1]; 6.25 µg/mL (≈ 13.1 µM) in assay [2]; 12.5 µg/mL (≈ 26.2 µM) in assay [3]; 6.25 µg/mL (≈ 13.1 µM) in the assay with Candida albicans C1-2; 1.56 µg/mL (≈ 3.27 µM) in assay [4]; 6.25 µg/mL (≈ 13.1 µM) in the assay with Candida krusei K. 11655. Further, the “Minimal inhibitory concentration (MIC)” value in [5] worked out at 12.5 µg/mL (≈ 26.2 µM); in assay [6] it was 6.25 µg/mL (≈ 13.1 µM); in assay [7] it was 12.5 µg/mL (≈ 26.2 µM); in assay [8], 3.13 µg/mL (≈ 6.56 µM); in assay [9] it was 3.13 µg/mL (≈ 6.56 µM); in assay [10], 1.56 µg/mL (≈ 3.27 µM). The “Minimal inhibitory concentration (MIC)” value in assay [11] came to 6.25 µg/mL (≈ 13.1 µM); in [12] it was 3.13 µg/mL (≈ 6.56 µM); in assay [13], 1.56 µg/mL (≈ 3.27 µM).

`Cc1ccc(C=C(F)OCC2COC(Cn3ccnc3)(c3ccc(Cl)cc3Cl)O2)cc1C` (stereo not drawn) [Ex. 5]: the “Minimal inhibitory concentration (MIC)” value in assay [1] amounted to 6.25 µg/mL (≈ 13.1 µM); in [2], 6.25 µg/mL (≈ 13.1 µM); in assay [3], 12.5 µg/mL (≈ 26.2 µM); in the assay on Candida albicans C1-2, 12.5 µg/mL (≈ 26.2 µM); in assay [4], 0.78 µg/mL (≈ 1.63 µM); in the assay with Candida krusei K. 11655 it was 12.5 µg/mL (≈ 26.2 µM). Besides, the “Minimal inhibitory concentration (MIC)” value in assay [5] came to 12.5 µg/mL (≈ 26.2 µM); in assay [6], 12.5 µg/mL (≈ 26.2 µM); in [7] it was 12.5 µg/mL (≈ 26.2 µM); in assay [8], 3.13 µg/mL (≈ 6.56 µM); in assay [9], 3.13 µg/mL (≈ 6.56 µM); in [10], 1.56 µg/mL (≈ 3.27 µM). Moreover, the figures for the “Minimal inhibitory concentration (MIC)” value in assay [11], in assay [12] and in [13] were 6.25 µg/mL (≈ 13.1 µM), 3.13 µg/mL (≈ 6.56 µM) and 3.13 µg/mL (≈ 6.56 µM), respectively.

With `Cc1cc(C)cc(C=C(F)OCC2COC(Cn3ccnc3)(c3ccc(Cl)cc3Cl)O2)c1` (stereo not drawn) [Ex. 6], the “Minimal inhibitory concentration (MIC)” value came to 6.25 µg/mL (≈ 13.1 µM) in assay [1]; 6.25 µg/mL (≈ 13.1 µM) in [2]; 6.25 µg/mL (≈ 13.1 µM) in assay [3]; 12.5 µg/mL (≈ 26.2 µM) in the assay on Candida albicans C1-2; 0.78 µg/mL (≈ 1.63 µM) in assay [4]; 12.5 µg/mL (≈ 26.2 µM) in the assay with Candida krusei K. 11655. For the same compound, the “Minimal inhibitory concentration (MIC)” value is 12.5 µg/mL (≈ 26.2 µM) in assay [5]; 12.5 µg/mL (≈ 26.2 µM) in assay [6]; 12.5 µg/mL (≈ 26.2 µM) in [7]; 3.13 µg/mL (≈ 6.56 µM) in assay [8]; 3.13 µg/mL (≈ 6.56 µM) in [9]; 1.56 µg/mL (≈ 3.27 µM) in [10]. The “Minimal inhibitory concentration (MIC)” value was 6.25 µg/mL (≈ 13.1 µM) in [11], 3.13 µg/mL (≈ 6.56 µM) in [12] and 3.13 µg/mL (≈ 6.56 µM) in assay [13].
